{"source": "patent US20220193076A1", "about": "“METHODS OF TREATING BREAST CANCER WITH TUCATINIB” (Seagen Inc., priority 2019, published 2022)", "key": {"[1]": {"test_system": "MATE1/2K", "experiment": "clinical", "conditions": "both, human, plasma"}, "[2]": {"test_system": "MATE1/2K", "experiment": "Phase 1 drug-drug interaction study: effect of tucatinib on metformin pharmacokinetics (Example 1)"}, "[3]": {"experiment": "Example 1: renal function (iohexol aGFR, serum creatinine, urine albumin)", "assay_type": "in vivo, human"}, "[4]": {"target": "P-gp (Homo sapiens, UniProt P08183)", "sequence (P08183 whole entry)": "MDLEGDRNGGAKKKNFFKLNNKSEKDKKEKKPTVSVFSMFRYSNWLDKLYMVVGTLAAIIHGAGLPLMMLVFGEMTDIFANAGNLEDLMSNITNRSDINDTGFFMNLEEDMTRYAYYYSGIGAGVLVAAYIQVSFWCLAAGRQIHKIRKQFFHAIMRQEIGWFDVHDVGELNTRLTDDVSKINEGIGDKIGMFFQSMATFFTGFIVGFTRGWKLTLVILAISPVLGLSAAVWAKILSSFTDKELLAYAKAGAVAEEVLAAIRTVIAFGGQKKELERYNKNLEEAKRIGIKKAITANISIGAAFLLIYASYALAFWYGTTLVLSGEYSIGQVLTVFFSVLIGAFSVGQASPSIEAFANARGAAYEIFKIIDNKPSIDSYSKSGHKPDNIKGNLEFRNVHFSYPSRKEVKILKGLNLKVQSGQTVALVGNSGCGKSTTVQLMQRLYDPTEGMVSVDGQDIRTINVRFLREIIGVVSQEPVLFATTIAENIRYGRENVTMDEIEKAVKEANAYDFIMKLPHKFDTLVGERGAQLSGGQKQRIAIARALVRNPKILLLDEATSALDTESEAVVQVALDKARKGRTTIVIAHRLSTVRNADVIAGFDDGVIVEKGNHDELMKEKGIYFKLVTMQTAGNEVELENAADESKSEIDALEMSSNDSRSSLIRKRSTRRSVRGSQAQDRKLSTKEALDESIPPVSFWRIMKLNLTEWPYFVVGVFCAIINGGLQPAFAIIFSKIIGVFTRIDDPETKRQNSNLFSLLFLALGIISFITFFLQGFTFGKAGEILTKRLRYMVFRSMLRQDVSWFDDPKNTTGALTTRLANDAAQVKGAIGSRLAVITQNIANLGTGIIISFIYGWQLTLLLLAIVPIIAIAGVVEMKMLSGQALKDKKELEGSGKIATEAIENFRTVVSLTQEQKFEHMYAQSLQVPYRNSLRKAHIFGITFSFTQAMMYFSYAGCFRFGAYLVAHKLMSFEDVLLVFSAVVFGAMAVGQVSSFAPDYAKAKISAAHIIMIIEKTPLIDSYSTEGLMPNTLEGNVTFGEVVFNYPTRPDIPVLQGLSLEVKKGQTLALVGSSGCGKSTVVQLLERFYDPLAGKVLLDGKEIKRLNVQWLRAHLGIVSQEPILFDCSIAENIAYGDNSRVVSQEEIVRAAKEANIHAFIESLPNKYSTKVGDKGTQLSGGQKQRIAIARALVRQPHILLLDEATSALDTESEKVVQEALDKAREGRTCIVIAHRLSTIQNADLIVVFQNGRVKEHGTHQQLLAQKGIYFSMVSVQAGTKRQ", "experiment": "Example 2 Part E: effect of tucatinib on PK of substrate probe digoxin", "conditions": "digoxin in combination with steady-state tucatinib vs digoxin alone", "experimental": "(§1) A Phase 1, open-label, fixed-sequence, 5-part, drug-drug interaction study of tucatinib was conducted to evaluate the effects of CYP3A4 and CYP2C8 inhibition and induction on the pharmacokinetics of tucatinib and to evaluate the effects of tucatinib on the pharmacokinetics of substrates of CYP3A4, CYP2C8, CYP2C9, and P-glycoprotein in healthy male and female subjects.\n(§2) Part B evaluates the effect of rifampin, a strong inducer of CYP3A4 and CYP2C8, on the PK of tucatinib. […] Part E evaluates the effect of tucatinib on the PK of a substrate probe of the transporter P-gp (digoxin). […] For Parts A, B, and C, tucatinib is given as a single oral dose because evaluating plasma exposures after a single dose of tucatinib is expected to provide an appropriate assessment of the impact of the probe drugs on tucatinib PK. In Parts D and E, tucatinib is given as a multiple-dosing regimen in order to examine its effects on probe drugs at steady state, at which maximal inhibition of CYP2C8, CYP2C9, CYP3A4, and P-gp by tucatinib should be achieved.\nA single genotyping blood sample was collected to assess possible effect of CYP polymorphisms or other genetic polymorphisms on the magnitude of drug interactions of tucatinib with probe drugs and substrates."}, "[5]": {"target": "CYP3A4 (Homo sapiens, UniProt P08684)", "sequence (P08684 whole entry)": "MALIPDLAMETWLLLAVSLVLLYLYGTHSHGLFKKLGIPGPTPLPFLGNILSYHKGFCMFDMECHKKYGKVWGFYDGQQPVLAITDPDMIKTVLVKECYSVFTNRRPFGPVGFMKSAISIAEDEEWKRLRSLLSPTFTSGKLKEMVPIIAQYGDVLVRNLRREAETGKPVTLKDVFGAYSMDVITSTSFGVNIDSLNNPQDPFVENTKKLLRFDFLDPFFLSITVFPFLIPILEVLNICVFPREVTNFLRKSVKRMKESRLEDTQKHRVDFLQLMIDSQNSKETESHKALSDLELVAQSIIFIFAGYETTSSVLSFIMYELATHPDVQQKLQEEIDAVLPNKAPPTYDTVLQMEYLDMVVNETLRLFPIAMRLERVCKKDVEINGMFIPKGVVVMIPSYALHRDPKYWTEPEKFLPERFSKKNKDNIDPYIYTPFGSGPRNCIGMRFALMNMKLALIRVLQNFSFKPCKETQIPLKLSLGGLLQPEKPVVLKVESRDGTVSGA", "experiment": "Example 2 Part D: effect of tucatinib on PK of substrate probe midazolam", "conditions": "steady-state tucatinib in combination with tolbutamide/midazolam vs tolbutamide/midazolam alone", "experimental": "as §1, §2\n(§3) Secondary objectives of the study included: (1) assessing the safety and tolerability of tucatinib when administered alone and when co-administered with substrate probes of CYP2C8, CYP2C9, and CYP3A4; and (2) assessing the single-dose PK of tucatinib and assessing the multiple-dose, steady-state PK of tucatinib alone and in the presence of substrate probes of CYP2C8, CYP2C9, and CYP3A4 in healthy subjects.\n(§4) They were discharged on Day 14 after completion of the in-patient assessments.\n(§5) On Day 1, each subject received a single oral dose of 0.5 mg of repaglinide. […] From Day 4 to Day 13, each subject received oral doses of 300 mg of tucatinib, twice daily (BID). On Day 11, each subject received a single oral dose of repaglinide. […] Tucatinib was provided as 150-mg tablets (2 tablets for the 300-mg dose), repaglinide was provided as 0.5-mg tablets, olbutamide was provided as 500-mg tablets, and midazolam was provided as a syrup (2 mg/mL; 1 mL syrup for the 2-mg dose). Tucatinib, repaglinide, olbutamide and midazolam were administered before meals preceded by an at least 8-hour overnight fast.\n(§6) Other noncompartmental PK parameters may be reported. Additionally, blood samples for determination of plasma concentrations of tucatinib and ONT-993 were collected at the time points indicated in FIG. 8. […] A single genotyping blood sample was collected to assess possible effect of CYP polymorphisms or other genetic polymorphisms on the magnitude of drug interactions of tucatinib with probe drugs and substrates."}, "[6]": {"target": "T1, CYP2C8 (Homo sapiens, UniProt P10632)", "T1 sequence (P10632 1-490)": "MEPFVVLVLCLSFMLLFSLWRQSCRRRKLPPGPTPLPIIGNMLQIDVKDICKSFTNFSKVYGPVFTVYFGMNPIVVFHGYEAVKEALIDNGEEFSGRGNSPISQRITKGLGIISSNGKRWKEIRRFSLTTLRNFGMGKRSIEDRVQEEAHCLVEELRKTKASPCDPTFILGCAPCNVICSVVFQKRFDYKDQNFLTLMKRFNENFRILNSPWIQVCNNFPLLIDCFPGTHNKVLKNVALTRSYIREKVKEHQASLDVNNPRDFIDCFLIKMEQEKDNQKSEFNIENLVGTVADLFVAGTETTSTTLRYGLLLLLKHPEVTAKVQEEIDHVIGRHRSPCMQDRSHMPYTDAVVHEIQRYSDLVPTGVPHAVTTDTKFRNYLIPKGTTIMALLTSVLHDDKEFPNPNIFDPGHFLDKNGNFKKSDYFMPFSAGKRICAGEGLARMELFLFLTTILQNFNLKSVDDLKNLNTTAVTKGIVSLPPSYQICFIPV", "experiment": "Example 2 Part D: effect of tucatinib on PK of substrate probe repaglinide", "assay_type": "in vivo", "parameters": "endogenous in cells; host or cells: healthy human subjects, in vivo", "conditions": "repaglinide in combination with steady-state tucatinib vs repaglinide alone", "experimental": "as §1, §2, §3, §4, §5, §6"}, "[7]": {"target": "CYP2C9 (Homo sapiens, UniProt P11712)", "sequence (P11712 whole entry)": "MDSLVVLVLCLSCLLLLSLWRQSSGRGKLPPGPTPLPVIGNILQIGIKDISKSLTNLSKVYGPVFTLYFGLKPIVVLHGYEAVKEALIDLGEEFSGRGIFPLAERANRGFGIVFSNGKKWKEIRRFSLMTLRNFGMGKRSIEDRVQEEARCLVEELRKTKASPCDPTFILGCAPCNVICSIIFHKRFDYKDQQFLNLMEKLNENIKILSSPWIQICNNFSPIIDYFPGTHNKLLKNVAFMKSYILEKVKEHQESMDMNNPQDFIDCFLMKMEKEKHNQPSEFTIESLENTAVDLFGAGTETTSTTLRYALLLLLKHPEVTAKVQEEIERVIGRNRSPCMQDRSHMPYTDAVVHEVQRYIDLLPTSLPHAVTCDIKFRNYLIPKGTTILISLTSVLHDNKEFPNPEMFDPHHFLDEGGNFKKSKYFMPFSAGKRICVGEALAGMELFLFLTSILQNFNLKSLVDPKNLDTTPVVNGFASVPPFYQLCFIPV", "experiment": "Example 2 Part D: effect of tucatinib on PK of substrate probe tolbutamide", "conditions": "tolbutamide/midazolam in combination with steady-state tucatinib vs tolbutamide/midazolam alone", "experimental": "as §1, §2, §3, §4\nOn Day 1, each subject received a single oral dose of 0.5 mg of repaglinide. […] From Day 4 to Day 13, each subject received oral doses of 300 mg of tucatinib, twice daily (BID). On Day 11, each subject received a single oral dose of repaglinide. […] Tucatinib was provided as 150-mg tablets (2 tablets for the 300-mg dose), repaglinide was provided as 0.5-mg tablets, olbutamide was provided as 500-mg tablets, and midazolam was provided as a syrup (2 mg/mL; 1 mL syrup for the 2-mg dose). […]"}, "[8]": {"conditions": "Metformin with tucatinib (Test), n = 17"}, "[9]": {"conditions": "coadministration of tucatinib with metformin compared to metformin alone"}}}
{"smiles": "CN(C)C(=N)N=C(N)N", "note": "[metformin]", "values": [{"measurement": "AUC", "setting": "[1]; oral", "value": 11600, "unit": "ng·h/mL"}, {"measurement": "AUC", "setting": "[1]; oral, 850 mg", "value": 8330, "unit": "ng·h/mL"}, {"measurement": "AUC(0-t)", "setting": "[1]; oral, 850 mg", "value": 8150, "unit": "ng·h/mL"}, {"measurement": "Cmax", "setting": "[1]; oral, 850 mg", "value": 1310, "unit": "ng/mL"}, {"measurement": "AUC(0-inf)", "setting": "[1]; po, 850 mg", "value": 8610, "unit": "ng·h/mL"}, {"measurement": "AUC(0-t)", "setting": "[1]; po, 850 mg", "value": 8420, "unit": "ng·h/mL"}, {"measurement": "Cmax", "setting": "[1]; po, 850 mg", "value": 1330, "unit": "ng/mL"}, {"measurement": "Vd/F", "setting": "[1]; po, 850 mg", "value": 695, "unit": "L"}, {"measurement": "Plasma metformin CL/F, arithmetic mean (CV %)", "setting": "[2]; Metformin + tucatinib 300 mg bid at steady state, Day 8, N = 17", "value": 77.4, "unit": "L/h"}, {"measurement": "Plasma metformin CL/F, arithmetic mean (CV %)", "setting": "[2]; Metformin + tucatinib 300 mg bid at steady state, Day 8, N = 17, listed as Metformin", "value": "77.4 (34.9) L/h"}, {"measurement": "Plasma metformin CL/F, arithmetic mean (CV %)", "setting": "[2]; Metformin alone, 850 mg oral, Day 1, N = 17", "value": 105.4, "unit": "L/h"}, {"measurement": "Plasma metformin CL/F, arithmetic mean (CV %)", "setting": "[2]; Metformin alone, 850 mg oral, Day 1, N = 17, listed as Metformin", "value": "105.4 (26.7) L/h"}, {"measurement": "AUC0-last, geometric least-squares (LS) mean", "setting": "[2]; [8]", "value": 11054, "unit": "ng·h/mL"}, {"measurement": "Cmax, geometric least-squares (LS) mean", "setting": "[2]; [8]", "value": 1418, "unit": "ng/mL"}, {"measurement": "Increase of arithmetic mean metformin AUC0-inf", "setting": "[2]; [9]", "value": 1.409, "unit": "fold"}, {"measurement": "Increase of arithmetic mean metformin AUC0-last", "setting": "[2]; [9]", "value": 1.376, "unit": "fold"}, {"measurement": "Increase of arithmetic mean metformin Cmax", "setting": "[2]; [9]", "value": 1.102, "unit": "fold"}]}
{"smiles": "CC(=O)N(CC(O)CO)c1c(I)c(C(=O)NCC(O)CO)c(I)c(C(=O)NCC(O)CO)c1I", "note": "(stereo not shown) [iohexol, reference compound]", "values": [{"measurement": "Mean iohexol PK parameters", "setting": "[3]; [9]", "value": "similar"}, {"measurement": "aGFR estimated using the Jødal and Brøchner Mortensen equation (iohexol)", "setting": "[3]; metformin alone", "value": 94.99, "unit": "mL/min/1.73 m^2"}, {"measurement": "aGFR estimated using the Jødal and Brøchner Mortensen equation (iohexol)", "setting": "[3]; metformin plus tucatinib", "value": 94.56, "unit": "mL/min/1.73 m^2"}]}
{"smiles": "C[C@H]1O[C@@H](O[C@H]2[C@@H](O)C[C@H](O[C@H]3[C@@H](O)C[C@H](O[C@H]4CC[C@@]5(C)[C@H](CC[C@@H]6[C@@H]5C[C@@H](O)[C@]5(C)[C@@H](C7=CC(=O)OC7)CC[C@]65O)C4)O[C@@H]3C)O[C@@H]2C)C[C@H](O)[C@@H]1O", "note": "[digoxin]", "values": [{"measurement": "Geometric LS mean ratio (90% CI), AUC0-∞", "setting": "[4]", "value": "1.46 (1.29, 1.66)"}, {"measurement": "Geometric LS mean ratio (90% CI), AUClast", "setting": "[4]", "value": "1.53 (1.35, 1.74)"}, {"measurement": "Geometric LS mean ratio (90% CI), Cmax", "setting": "[4]", "value": "2.35 (1.90, 2.90)"}]}
{"smiles": "Cc1ncc2n1-c1ccc(Cl)cc1C(c1ccccc1F)=NC2", "note": "[midazolam]", "values": [{"measurement": "Geometric LS mean ratio (90% CI), AUC0-∞", "setting": "[5]", "value": "5.74 (5.05, 6.53)"}, {"measurement": "Geometric LS mean ratio (90% CI), AUClast", "setting": "[5]", "value": "5.30 (4.65, 6.04)"}, {"measurement": "Geometric LS mean ratio (90% CI), Cmax", "setting": "[5]", "value": "3.01 (2.63, 3.45)"}]}
{"smiles": "CCOc1cc(CC(=O)N[C@@H](CC(C)C)c2ccccc2N2CCCCC2)ccc1C(=O)O", "note": "[repaglinide]", "values": [{"measurement": "Geometric LS mean ratio (90% CI), AUC0-∞", "setting": "[6]", "value": "1.69 (1.51, 1.90)"}, {"measurement": "Geometric LS mean ratio (90% CI), AUClast", "setting": "[6]", "value": "1.72 (1.55, 1.91)"}, {"measurement": "Geometric LS mean ratio (90% CI), Cmax", "setting": "[6]", "value": "1.69 (1.37, 2.10)"}]}
{"smiles": "OCc1ncc2n1-c1ccc(Cl)cc1C(c1ccccc1F)=NC2", "note": "[1-hydroxymidazolam]", "values": [{"measurement": "Geometric LS mean ratio (90% CI), AUC0-∞", "setting": "[5]", "value": "1.02 (0.903, 1.16)"}, {"measurement": "Geometric LS mean ratio (90% CI), AUClast", "setting": "[5]", "value": "0.945 (0.848, 1.05)"}, {"measurement": "Geometric LS mean ratio (90% CI), Cmax", "setting": "[5]", "value": "0.593 (0.507, 0.694)"}, {"measurement": "Geometric mean MRAUC0-∞, decreased by", "setting": "[5]", "value": "approximately 82.8%"}, {"measurement": "Geometric mean MRCmax, decreased by", "setting": "[5]", "value": "~80.4", "unit": "%"}]}
{"smiles": "CCCCNC(=O)NS(=O)(=O)c1ccc(CO)cc1", "note": "[4-hydroxytolbutamide]", "values": [{"measurement": "Geometric LS mean ratio (90% CI), AUC0-∞", "setting": "[7]", "value": "0.918 (0.880, 0.958)"}, {"measurement": "Geometric LS mean ratio (90% CI), AUClast", "setting": "[7]", "value": "0.900 (0.868, 0.934)"}, {"measurement": "Geometric LS mean ratio (90% CI), Cmax", "setting": "[7]", "value": "0.881 (0.831, 0.934)"}]}
